The values that follow come from patent publication US6455242B1, “Color photographic element containing speed improving compound” (Eastman Kodak Company, priority 1998, dated 2002).

This series can be described thus: Permanent solvent physical constant beta. The series is classed as physicochemical. Conditions: permanent solvent constant as defined by Kamlet et al. From the text: The materials of the invention can be added to a mixture containing silver halide before coating or, more suitably, be mixed with the silver halide just prior to or during coating. In either case, additional components like couplers, […], surfactants, hardeners and other materials that are typically present in such solutions may also be present at the same time. The materials of the invention are not water-soluble and cannot be added directly to the solution. They may be added directly if dissolved in an organic water miscible solution such as methanol, acetone or the like or more preferably as a dispersion. A dispersion incorporates the material in a stable, finely divided state in a hydrophobic organic solvent (often referred to as a coupler solvent or permanent solvent) that is stabilized by suitable surfactants and surface active agents usually in combination with a binder or matrix such as gelatin. The dispersion may contain one or more permanent solvents that dissolve the material and maintain it in a liquid state. Some examples of suitable permanent solvents are tricresylphosphate, N,N-diethyllauramide, N,N-dibutyllauramide, p-dodecylphenol, dibutylphthalate, di-n-butyl sebacate, N-n-butylacetanilide, 9-octadecen-1-ol, ortho-methylphenyl benzoate, trioctylamine and 2-ethylhexylphosphate. Permanent solvents can also be described in terms of physical constants such as alpha, beta and pi* as defined by M. J. Kamlet, J-L. M. Abboud, M. H. Abraham and R. W. Taft, J. Org Chem, 48, 2877(1983). The preferred permanent solvents used with the materials of the invention are those with ClogP of 5.0 or greater and beta values of 0.4 or greater or more preferably, beta values of 0.5 or greater. Preferred classes of solvents are carbonamides, phosphates, alcohols and esters. When a solvent is present, it is preferred that the weight ratio of compound to solvent be at least 1 to 0.5, or most preferably, at least 1 to 1. […]

Turning to `Cc1ccccc1OC(=O)c1ccccc1` [ortho-methylphenyl benzoate], the beta amounted to 0.43. On to `CCCCCCCC/C=C\CCCCCCCCO` [(Z)-9-octadecen-1-ol], for which the beta is reported as 0.71. On to `CCCCCCCCCCCC(=O)N(CCCC)CCCC` [N,N-dibutyllauramide], for which the beta was 0.93.
